Data on 13 compounds can be found in patent EP1285920A1, “C10 Ester sustituted taxanes as antitumor agents” (Florida State University Research Foundation, Inc., priority 2001, dated 2003).

The subject of one series is HCT116 carcinoma. The following applies: i.v. qd x 1 at MTD, Day 60; for Survivors / Stable Disease / Complete Response / Partial Response / Toxic Deaths: number of 5 mice; for Survivors / Mean Score / Stable Disease / Complete Response / Partial Response: doses as in E3; for Mean Score: 5 mice/group; for Stable Disease: tumor did not reach 2.0 g by end of study; for Complete Response: tumor not palpable at end of study; for Partial Response: tumor smaller than on Day 1; for Toxic Deaths: mg/kg: Taxol 36 (split doses), 0503 72.6, 0536 49, 0663 159, 0670 123, 0687 159, 0706 108, 0908 159, 0947 76.9, 0951 72.6, 0983 72.6, 0999 49, 1003 49, 1011 108. As for the experimental part:
Antitumor compounds were formulated for an i.v. dosing regime and were prepared in the following vehicle: 5% ethanol, 5% Cremophor and 90% isotonic saline.
The antitumor compounds were given intravenously in a single maximum tolerated dose (MTD) appropriate for each compound. […] The MTDs for the antitumor compounds were calculated from earlier single dose data for mice receiving i.v. administration of these compounds. All vehicle control animals in the split dosing regimes were dosed twice intravenously with half of the total volume being given separated by one hour. The study was terminated on Day 60.
A complete response is obtained if the tumor is not palpable at the end of the study.

For a further series, the system named is MX-1 carcinoma. The following applies: for Survivors / Stable Disease / Complete Response / Partial Response / Toxic Deaths: number of 6 mice; for Survivors / Mean Score / Stable Disease / Complete Response / Partial Response / Toxic Deaths: i.v. qd x 1 at MTD; for Survivors / Mean Score / Stable Disease / Complete Response / Partial Response: doses as in E17; for Mean Score: 6 mice/group; for Stable Disease: tumor did not reach 2.0 g by end of study; for Complete Response: tumor not palpable at end of study; for Partial Response: tumor smaller than on Day 1; for Toxic Deaths: mg/kg: Taxol 36 (split dose), 0503 72.6, 0536 49, 0663 159, 0670 123, 0687 159, 0706 108, 0908 159, 0947 76.9, 0951 72.6, 0983 67.4, 0999 49, 1003 49, 1011 108. How it is done: Thirteen antitumor compounds were formulated for an i.v. dosing regime (single i.v. bolus, qd x 1 schedule) prepared in the following vehicle: 5% ethanol, 5% Cremophor and 90% isotonic saline.
The antitumor compounds were given intravenously in a single maximum tolerated dose (MTD) appropriate for each compound. […] The MTDs for the antitumor compounds were calculated from earlier single dose data for mice receiving i.v. administration of these compounds. All vehicle control animals in the split dosing regimes were dosed twice intravenously with half the total volume being given separated by one hour. The study was terminated on Day 60.
A complete response is obtained if the tumor is not palpable at the end of the study. […]

A further series has as its system A2780 ovarian carcinoma. The following applies: for MDS: i.v. qd x 1 (compounds estimated MTD; Taxol 24 mg/kg split; Taxotere 70 mg/kg), days until tumor 2.0 g, ended Day 60. How it is done:
Dosing was initiated on Day 1. […] Taxotere was given i.v. on a qd x 1 schedule at a dose of 70 mg/kg. […] The study was terminated on Day 60. Treatment groups are detailed in Table 7.

Another series has as its system HCT116. Kind of series: In Vitro cytotoxicity measured by the cell colony formation assay. As to conditions: read-out: IN VITRO ID 50 HCT116. Format: cell-based, human. The method, boiled down: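 Four hundred cells per dish in McCoy's 5a medium with 10% FBS were allowed to attach for 5 h at 37 °C. They were then exposed to compound for 72 h at 37 °C, added as a 10× stock made fresh in medium. After HBSS rinsing and refeeding, colonies were counted after 7 days.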

Setting [1] is: number of mice, i.v. qd x 1 at estimated MTD (Taxol 24 mg/kg, Taxotere 70 mg/kg, 0983 72.6 mg/kg), 5 mice/group (Taxotere 6), Day 60.

Structures are written as SMILES. Read-outs that look alike come from different tables or passages of the source. Bounds are passed on as bounds.

Regarding `CCC(=O)OC1C(=O)C2(C)C(O)CC3OCC3(OC(C)=O)C2C(OC(=O)c2ccccc2)C2(O)CC(OC(=O)C(O)C(NC(=O)c3ccccc3)c3cccs3)C(C)=C1C2(C)C` (stereo not drawn) [Compound 0687], the values for the Survivors with HCT116 carcinoma, in the series on MX-1 carcinoma (Day 60) and in the series on A2780 ovarian carcinoma (setting [1]) were 5, 5 and 0, respectively.
With `CCCC(=O)O[C@H]1C(=O)[C@@]2(C)[C@H]([C@H](OC(=O)c3ccccc3)[C@]3(O)C[C@H](OC(=O)[C@H](O)[C@@H](NC(=O)OC(C)(C)C)c4ccccn4)C(C)=C1C3(C)C)[C@]1(OC(C)=O)CO[C@@H]1C[C@@H]2O` [Compound 0951], in the series on HCT116 carcinoma, the “Mean Score” value turned out to be 9.6 ± 0.2, the “Stable Disease” value came to 0, the “Complete Response” value came to 3 and the “Partial Response” value was found to be 2. In addition, in the series on HCT116 carcinoma, the Survivors came to 5 and the “Toxic Deaths” value was 0. Further, the IC50 in the series on HCT116 (Homo sapiens, HCT-116) is less than 1 nM. Moreover, the “treated animals with durable complete responses and partial responses” value with MX-1 carcinoma (MX-1, single i.v. MTD) worked out at 100%. Besides, in the series on MX-1 carcinoma (Day 60), the “Mean Score” value amounted to 9.5 ± 0.5, the “Stable Disease” value is 0, the “Complete Response” value worked out at 5 and the “Partial Response” value came out at 1. Besides, in the series on MX-1 carcinoma (Day 60), the Survivors was 6 and the “Toxic Deaths” value is given as 0. In the series on A2780 ovarian carcinoma (A2780, i.v. qd x 1), the “antitumor activity” value is on record as “no tumor shrinkage” and the “survival extension compared to Group 1 controls” value is given as 269%. Further, the MDS in the series with A2780 ovarian carcinoma (A2780) is listed as 43.2 days. Besides, the Stable Disease entry with A2780 ovarian carcinoma (A2780, i.v. qd x 1, five mice per group) is listed as “one”.
Take `CCC(=O)O[C@H]1C(=O)[C@@]2(C)[C@H]([C@H](OC(=O)c3ccccc3)[C@]3(O)C[C@H](OC(=O)[C@H](O)[C@@H](NC(=O)OC(C)(C)C)c4ccco4)C(C)=C1C3(C)C)[C@]1(OC(C)=O)CO[C@@H]1C[C@@H]2O` [Compound 0536]: in the series with HCT116 carcinoma, the “Mean Score” value is 9.2 ± 0.2, the “Stable Disease” value turned out to be 0, the “Complete Response” value came out at 1 and the “Partial Response” value is 4. Besides, in the series on HCT116 carcinoma, the Survivors turned out to be 5 and the “Toxic Deaths” value is recorded as 0. Further, the IC50 with HCT116 (Homo sapiens, HCT-116) was less than 1 nM. The “antitumor activity / tumor response” value in the series on MX-1 carcinoma (MX-1, i.v. qd x 1, Day 60) is “complete and durable tumor regressions in all the treated mice”. In the series with MX-1 carcinoma (Day 60), the “Mean Score” value turned out to be 6.7 ± 2.1, the “Stable Disease” value is on record as 0, the “Complete Response” value was determined as 4 and the “Partial Response” value amounted to 0. Besides, in the series on MX-1 carcinoma (Day 60), the Survivors was 4 and the “Toxic Deaths” value was 2. In the series with A2780 ovarian carcinoma (A2780, i.v. qd x 1), the “antitumor activity” value is on record as “did not cause any complete responses, partial responses, or cases of stable disease”. Moreover, the MDS with A2780 ovarian carcinoma (A2780) is 42.6 days. Further, the “MDS (n)” value in the series on A2780 ovarian carcinoma (mean days of survival until neoplasm reached 2.0 g, i.v. qd x 1 at estimated MTD (Taxol 24 mg/kg, Taxotere 70 mg/kg, 0983 72.6 mg/kg), 5 mice/group (Taxotere 6), terminated Day 60) is reported as 42.6 ± 3.3 (5) days. For the same compound, in the series on A2780 ovarian carcinoma (number of mice, i.v. qd x 1 at estimated MTD (Taxol 24 mg/kg, Taxotere 70 mg/kg, 0983 72.6 mg/kg), 5 mice/group (Taxotere 6)), the “Toxic Deaths” value is reported as 0. In the series on A2780 ovarian carcinoma (setting [1]), the “Complete Response” value is 0, the “Partial Respons” value was 0, the “Stable Disease” value is listed as 0 and the Survivors is reported as 0. Moreover, in the series on A2780 ovarian carcinoma (tumor scoring system, i.v. qd x 1 at estimated MTD (Taxol 24 mg/kg, Taxotere 70 mg/kg, 0983 72.6 mg/kg), 5 mice/group (Taxotere 6)), the “Mean Score” value is reported as 3 ± 0.
Turning to `CCC(=O)O[C@H]1C(=O)[C@@]2(C)[C@H]([C@H](OC(=O)c3ccccc3)[C@]3(O)C[C@H](OC(=O)[C@H](O)[C@@H](NC(=O)c4ccccc4)c4ccsc4)C(C)=C1C3(C)C)[C@]1(OC(C)=O)CO[C@@H]1C[C@@H]2O` [Compound 0691], the IC50 in the series on HCT116 (Homo sapiens, HCT-116) was less than 1 nM.
On the same count and under the same terms, the figure for `CCC(=O)O[C@H]1C(=O)[C@@]2(C)[C@H]([C@H](OC(=O)c3ccccc3)[C@]3(O)C[C@H](OC(=O)[C@H](O)[C@@H](NC(=O)c4ccco4)c4ccco4)C(C)=C1C3(C)C)[C@]1(OC(C)=O)CO[C@@H]1C[C@@H]2O` [Compound 3818] is less than 1 nM.
On the same count and under the same terms, the figure for `CC(=O)O[C@@]12CO[C@@H]1C[C@H](O)[C@@]1(C)C(=O)[C@H](OC(=O)C=C(C)C)C3=C(C)[C@@H](OC(=O)[C@H](O)[C@@H](NC(=O)OC(C)(C)C)c4ccoc4)C[C@@](O)([C@@H](OC(=O)c4ccccc4)[C@H]21)C3(C)C` [Compound 2499] is less than 1 nM.
The same measure, in the same setting: the figure for `CCCC(=O)O[C@H]1C(=O)[C@@]2(C)[C@H]([C@H](OC(=O)c3ccccc3)[C@]3(O)C[C@H](OC(=O)[C@H](O)[C@@H](NC(=O)c4cccnc4)c4cccs4)C(C)=C1C3(C)C)[C@]1(OC(C)=O)CO[C@@H]1C[C@@H]2O` [Compound 4190] is less than 10 nM; for `CC(=O)O[C@@]12CO[C@@H]1C[C@H](O)[C@@]1(C)C(=O)[C@H](OC(=O)C=C(C)C)C3=C(C)[C@@H](OC(=O)[C@H](O)[C@H](C=C(C)C)NC(=O)OC(C)(C)C)C[C@@](O)([C@@H](OC(=O)c4ccccc4)[C@H]21)C3(C)C` [Compound 2455] it is less than 10 nM.
`CCC(=O)O[C@H]1C(=O)[C@@]2(C)[C@H]([C@H](OC(=O)c3ccccc3)[C@]3(O)C[C@H](OC(=O)[C@H](O)[C@@H](NC(=O)c4ccccc4)c4ccccn4)C(C)=C1C3(C)C)[C@]1(OC(C)=O)CO[C@@H]1C[C@@H]2O` [Compound 0634]: the IC50 in the series with HCT116 (Homo sapiens, HCT-116) is less than 10 nM.
Same read-out and setting: under `CCCC(=O)O[C@H]1C(=O)[C@@]2(C)[C@H]([C@H](OC(=O)c3ccccc3)[C@]3(O)C[C@H](OC(=O)[C@H](O)[C@@H](NC(=O)C=C(C)C)c4cccs4)C(C)=C1C3(C)C)[C@]1(OC(C)=O)CO[C@@H]1C[C@@H]2O` [Compound 4344] stands less than 1 nM.
Take `CC=CC(=O)OC1C(=O)C2(C)C(O)CC3OCC3(OC(C)=O)C2C(OC(=O)c2ccccc2)C2(O)CC(OC(=O)C(O)C(NC(=O)OC(C)(C)C)C3CCC3)C(C)=C1C2(C)C` (stereo not drawn) [Compound 2424]: the IC50 with HCT116 (HCT116 colony formation, 72 h with drug, colonies counted after 7 days, ID50 = concentration producing 50% inhibition of colony formation) is less than 10 nM.
As to `CC(=O)O[C@@]12CO[C@@H]1C[C@H](O)[C@@]1(C)C(=O)[C@H](OC(=O)c3cccs3)C3=C(C)[C@@H](OC(=O)[C@H](O)[C@@H](NC(=O)OC(C)(C)C)c4ccco4)C[C@@](O)([C@@H](OC(=O)c4ccccc4)[C@H]21)C3(C)C` [Compound 1892], in the series on HCT116 (Homo sapiens, HCT-116), the IC50 was less than 1 nM.
On the same count and under the same terms, the figure for `CCCC(=O)O[C@H]1C(=O)[C@@]2(C)[C@H]([C@H](OC(=O)c3ccccc3)[C@]3(O)C[C@H](OC(=O)[C@H](O)[C@@H](NC(=O)OC(C)(C)C)C(C)C)C(C)=C1C3(C)C)[C@]1(OC(C)=O)CO[C@@H]1C[C@@H]2O` [Compound 1031] is less than 10 nM.
